Experimental data: EP3383888B9, “NEW PEPTIDES HAVING ANTIMICROBIAL ACTIVITY AND NEW ENZYME CAPABLE OF CONVERTING L-CONFIGURED RESIDUE IN D-CONFIGURED AMINO ACID IN A PEPTIDE” (Institut national de recherche pour l'agriculture, …, priority 2015, dated 2017)
Square brackets hold non-standard residues; d marks the D form. Ends that are not written are not given here. Peptide text beside a SMILES is read from it. d(aIle) = CC[C@H](C)[C@@H](N)C(=O)O

Key:
B. subtilis [1] = test: Inhibition assay on liquid medium (OD at 600 nm); assay type: cell-based, Bacillus subtilis; conditions: for Growth of B. subtilis in liquid LB medium (bacterial growth inhibition): Fig. 5B, Fig. 8a
Description: (§1) An overnight culture of the bacterial strain to be assayed was freshly inoculated to sterile LB liquid medium. After 4 hours of bacterial growth at 37°C, the medium was diluted to 1/10,000 and inoculated into sterile liquid LB or BHI medium. Peptide solution was added (1/100) to a final concentration ranging from 0.01 to 100µM and OD at 600 nm was recorded continuously using a Tecan microplate reader (Infinite® 200 PRO series).

B. subtilis [2] = test: Inhibition assay on solid medium (plate growth inhibition); assay type: cell-based, Bacillus subtilis; conditions: 200 µg of peptide spotted, 37°C, Fig. 5A
Description: An overnight culture of the bacterial strain to be assayed was freshly inoculated to sterile BHI liquid medium. After 4 hours of bacterial growth at 37°C, the medium was diluted to 1/1000 and inoculated into a soft agarose medium pre-heated at 42°C. The agarose medium containing bacteria was overlaid on a previously jellified sterile BHI agarose layer. 200 µg of peptide was spotted onto the plate and bacterial growth proceeded at 37°C.

Streptococcus agalactiae = test: Inhibition assay on liquid medium (OD at 600 nm); assay type: cell-based; conditions: peptide at 100µM; Fig. 12
Description: as §1

Compound | Growth of B. subtilis in liquid LB medium (bacterial growth inhibition) (B. subtilis [1]; liquid LB medium) | Growth of B. subtilis in liquid LB medium (bacterial growth inhibition) (B. subtilis [1]; liquid LB medium, listed as epimerized peptide) | Plate growth inhibition assay of B. subtilis (B. subtilis [2]) | Growth of B. subtilis after addition of peptide at mid-exponential phase (cell density) (B. subtilis [1]; liquid LB medium, peptide added after 3 hours of growth, Fig. 9) | Growth of Streptococcus agalactiae in liquid BHI medium (Streptococcus agalactiae) | potency relative to the YydF18-49DD peptide (B. subtilis [1]; B. subtilis growth ratio, Fig. 8b&c) [times]
CC[C@H](C)[C@@H](NC(=O)[C@H](Cc1c[nH]c2ccccc12)NC(=O)[C@H](CCCNC(=N)N)NC(=O)[C@H](CC(N)=O)NC(=O)[C@H](CCC(=O)O)NC(=O)[C@H](CCCCN)NC(=O)[C@H](CO)NC(=O)[C@H](CCCCN)NC(=O)[C@H](NC(=O)[C@H](Cc1ccccc1)NC(=O)[C@H](Cc1ccc(O)cc1)NC(=O)[C@H](Cc1c[nH]c2ccccc12)NC(=O)[C@H](CC(C)C)NC(=O)[C@H](CC(=O)O)NC(=O)[C@H](CC(N)=O)NC(=O)[C@@H](NC(=O)[C@H](CCCCN)NC(=O)[C@H](C)NC(=O)[C@H](CC(C)C)NC(=O)[C@H](CCCCN)NC(=O)[C@H](CCC(N)=O)NC(=O)[C@H](CO)NC(=O)[C@H](CCC(=O)O)NC(=O)[C@H](CC(=O)O)NC(=O)[C@H](CC(C)C)NC(=O)[C@H](CC(C)C)NC(=O)CNC(C)=O)C(C)C)C(C)C)C(=O)N[C@@H](CC(C)C)C(=O)NCC(=O)N[C@@H](CO)C(=O)NCC(=O)N[C@@H](Cc1c[nH]cn1)C(=O)O [YydF18-49DD, Ac-GLLDESQKLAKVNDLWYF{d-V}KSKENRW{d-I}LGSGH (SEQ ID No 20)] (Ac-GLLDESQKLAKVNDLWYF[dV]KSKENRW[d(aIle)]LGSGH-OH) | bacterial growth inhibition | strong and persistent inhibition | strong inhibition growth | – | – | –
Ac-GLLDESQKLAKVNDLWYFVKSKENRWILGSGH (SEQ ID No 20) [YydF18-49, truncated form of YydF, residues 18 to 49, no modification (all L-amino acids)] | – | – | devoid of activity | a clear slow down followed by a decrease of the cell density | – | –
WYFVKSQSNRWIVGSGH (SEQ ID No 65) (WYF[dV]KSQSNRW[dI]VGSGH) [Peptide-SP] | – | – | – | – | inhibitors | –
YydF33-49DD: peptide of SEQ ID No 61 with the two epimerized residues D-Val36 and D-Ile44 (WYF[dV]KSKENRW[dI]LGSGH) | inhibit bacterial growth | – | – | – | inhibited | 100
